Like-named read-outs stand apart in the source and are kept apart here. *1 amine or outer side, *2 acyl side, *3 side chain or, on linkers, in order; H or OH if unused. Where a SMILES comes first, the peptide text is derived from it. Side-chain parts run from the residue outwards. [ ]: non-standard residue; d: D form. The star is where a group is joined. αMePhe(2-F) = C[C@](N)(Cc1ccccc1F)C(=O)O; γGlu = O=C(O)[C@H](CCC(=O)[*:2])N[*:1]; C14 diacid = O=C(O)CCCCCCCCCCCCC(=O)*; αMeF = C[C@](N)(Cc1ccccc1)C(=O)O; 4Pal = N[C@@H](Cc1ccncc1)C(=O)O; αMeL = CC(C)C[C@](C)(N)C(=O)O; Orn = NCCC[C@H](N)C(=O)O; AEEA = NCCOCCOCC(=O)O; Aib = CC(C)(N)C(=O)O
How the values were obtained:
Assay type in all cases: cell-based
hGIPR = biological target: T1, hGIPR (Homo sapiens, UniProt P48546); assay: Functional cAMP formation (HTRF) in HEK-293 clonal cells expressing hGIPR, 0.1% bovine casein, without or with 1.0% human serum albumin; conditions: for Emax: 37° C., 0.1% bovine casein, arithmetic mean
T1 construct: expressed in transfected cells
T1 sequence (P48546 22-466): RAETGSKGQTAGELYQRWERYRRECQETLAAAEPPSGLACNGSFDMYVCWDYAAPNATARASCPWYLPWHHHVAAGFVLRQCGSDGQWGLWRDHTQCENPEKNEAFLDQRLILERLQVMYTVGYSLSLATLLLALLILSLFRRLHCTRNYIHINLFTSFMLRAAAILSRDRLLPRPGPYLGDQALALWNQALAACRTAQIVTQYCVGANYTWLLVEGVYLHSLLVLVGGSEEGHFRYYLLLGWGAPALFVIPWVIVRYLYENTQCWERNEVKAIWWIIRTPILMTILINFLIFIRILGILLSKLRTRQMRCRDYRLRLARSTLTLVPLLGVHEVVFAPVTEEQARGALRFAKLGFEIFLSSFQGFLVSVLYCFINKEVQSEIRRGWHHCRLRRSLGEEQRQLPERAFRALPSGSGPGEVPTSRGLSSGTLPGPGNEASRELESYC
Method in brief: (§1)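 Cells were stimulated with peptide for 30 min at 37° C, then lysed in buffer carrying cAMP-d2 and anti-cAMP Eu3+-cryptate for a competitive HTRF read after at least 60 min at room temperature. The 665/620 nm ratio was converted to nM cAMP against a standard curve.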

hGCGR = biological target: T2, hGCGR (Homo sapiens, UniProt P47871); assay: Functional cAMP formation (HTRF) in HEK-293 clonal cells expressing hGCGR, 0.1% bovine casein, without or with 1.0% human serum albumin; conditions: cAMP, incubated at 37° C., 0.1% bovine casein (no human serum albumin), geometric mean
T2 construct: expressed in transfected cells
T2 sequence (P47871 26-477): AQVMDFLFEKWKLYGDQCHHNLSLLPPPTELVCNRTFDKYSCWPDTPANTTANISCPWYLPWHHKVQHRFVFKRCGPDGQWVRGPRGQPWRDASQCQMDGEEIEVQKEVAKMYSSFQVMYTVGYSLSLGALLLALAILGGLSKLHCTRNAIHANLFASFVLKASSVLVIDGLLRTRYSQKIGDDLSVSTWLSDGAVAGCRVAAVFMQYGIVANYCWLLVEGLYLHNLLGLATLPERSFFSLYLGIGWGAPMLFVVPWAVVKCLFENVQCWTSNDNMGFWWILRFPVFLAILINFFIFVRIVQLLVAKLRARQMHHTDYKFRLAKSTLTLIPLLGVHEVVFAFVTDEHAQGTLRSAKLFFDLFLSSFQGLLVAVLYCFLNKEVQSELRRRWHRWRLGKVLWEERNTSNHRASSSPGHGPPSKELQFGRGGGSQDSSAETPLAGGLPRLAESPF
Method in brief: as §1

hGLP-1R = hGLP-1R (Homo sapiens, UniProt P43220); assay: Functional cAMP formation (HTRF) in HEK-293 clonal cells expressing hGLP-1R, 0.1% bovine casein, without or with 1.0% human serum albumin; parameters: expressed in transfected cells; conditions: 37° C., 0.1% bovine casein, arithmetic mean
hGLP-1R, sequence (P43220 24-463): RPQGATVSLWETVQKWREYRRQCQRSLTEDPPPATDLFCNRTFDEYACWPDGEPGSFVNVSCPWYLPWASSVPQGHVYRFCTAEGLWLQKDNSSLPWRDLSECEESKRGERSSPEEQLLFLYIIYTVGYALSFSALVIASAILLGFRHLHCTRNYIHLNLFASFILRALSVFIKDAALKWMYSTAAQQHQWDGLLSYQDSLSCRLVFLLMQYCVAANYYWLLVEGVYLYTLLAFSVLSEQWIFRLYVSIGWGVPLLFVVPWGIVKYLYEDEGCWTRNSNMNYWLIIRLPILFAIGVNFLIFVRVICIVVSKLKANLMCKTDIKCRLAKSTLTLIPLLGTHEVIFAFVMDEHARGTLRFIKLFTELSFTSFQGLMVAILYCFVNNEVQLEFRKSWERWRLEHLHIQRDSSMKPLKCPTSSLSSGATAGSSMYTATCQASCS
Method in brief: as §1

| SMILES | Emax (hGIPR; HEK293, read-out: hGIPR Emax, % ± SEM, percent of maximal response to GIP(1-42)NH2) [%] | EC50 (hGCGR; hGCGR EC50, nM (SEM, n)) [nM] | Emax (hGLP-1R; HEK293, read-out: hGLP-1R Emax, % ± SEM, percent of maximal response to GLP-1(7-36)NH2) [%] | Emax (hGIPR; HEK293, percent of maximal response to GIP(1-42)NH2, read-out: hGIPR Emax, % ± SEM) [%] | EC50 (hGIPR; cAMP, incubated at 37° C., 0.1% bovine casein (no human serum albumin), geometric mean, read-out: hGIPR EC50, nM (SEM, n)) [nM] | EC50 (hGCGR; read-out: hGCGR EC50, nM (SEM, n)) [nM] | Emax (hGLP-1R; HEK293, percent of maximal response to GLP-1(7-36)NH2, read-out: hGLP-1R Emax, % ± SEM) [%] |
| --- | --- | --- | --- | --- | --- | --- | --- |
| CC[C@H](C)[C@H](NC(=O)[C@H](CC(C)C)NC(=O)[C@](C)(Cc1ccccc1)NC(=O)[C@H](CCCCNC(=O)COCCOCCNC(=O)COCCOCCNC(=O)CC[C@H](NC(=O)CCCCCCCCCCCCC(=O)O)C(=O)O)NC(=O)[C@@H](NC(=O)[C@](C)(Cc1ccccc1)NC(=O)[C@H](CCC(=O)O)NC(=O)C(C)(C)NC(=O)[C@H](CCC(N)=O)NC(=O)[C@H](C)NC(=O)[C@H](CCCCNC(=O)COCCOCCNC(=O)COCCOCCNC(=O)CC[C@H](NC(=O)CCCCCCCCCCCCC(=O)O)C(=O)O)NC(=O)[C@H](CCCN)NC(=O)[C@H](CC(=O)O)NC(=O)[C@H](CC(C)C)NC(=O)[C@](C)(CC(C)C)NC(=O)[C@@H](NC(=O)[C@H](CO)NC(=O)[C@H](Cc1ccncc1)NC(=O)[C@H](CC(=O)O)NC(=O)[C@H](CO)NC(=O)[C@@H](NC(=O)[C@](C)(Cc1ccccc1F)NC(=O)[C@@H](NC(=O)CNC(=O)[C@H](CCC(=O)O)NC(=O)C(C)(C)NC(=O)[C@@H](N)Cc1ccc(O)cc1)[C@@H](C)O)[C@@H](C)O)[C@@H](C)CC)[C@@H](C)CC)C(=O)N[C@@H](CCC(=O)O)C(=O)NCC(=O)NCC(=O)N1CCC[C@H]1C(=O)N[C@@H](CO)C(=O)N[C@@H](CO)C(=O)NCC(=O)N[C@@H](C)C(=O)N1CCC[C@H]1C(=O)N1CCC[C@H]1C(=O)N1CCC[C@H]1C(=O)N[C@@H](CO)C(N)=O [Example 84] | 98.5 | > 9950 | 94 | – | – | – | – |
| CC[C@H](C)[C@H](NC(=O)[C@H](CC(C)C)NC(=O)[C@H](Cc1ccc(O)cc1)NC(=O)[C@H](CCCCNC(=O)COCCOCCNC(=O)COCCOCCNC(=O)CC[C@H](NC(=O)CCCCCCCCCCCCC(=O)O)C(=O)O)NC(=O)[C@@H](NC(=O)[C@](C)(Cc1ccccc1)NC(=O)[C@H](CCC(=O)O)NC(=O)C(C)(C)NC(=O)[C@H](CCC(N)=O)NC(=O)[C@H](C)NC(=O)[C@H](CCCCNC(=O)COCCOCCNC(=O)COCCOCCNC(=O)CC[C@H](NC(=O)CCCCCCCCCCCCC(=O)O)C(=O)O)NC(=O)[C@H](CCCN)NC(=O)[C@H](CC(=O)O)NC(=O)[C@H](CC(C)C)NC(=O)[C@](C)(CC(C)C)NC(=O)[C@@H](NC(=O)[C@H](CO)NC(=O)[C@H](Cc1ccncc1)NC(=O)[C@H](CC(=O)O)NC(=O)[C@H](CO)NC(=O)[C@@H](NC(=O)[C@](C)(Cc1ccccc1F)NC(=O)[C@@H](NC(=O)CNC(=O)[C@H](CCC(=O)O)NC(=O)C(C)(C)NC(=O)[C@@H](N)Cc1ccc(O)cc1)[C@@H](C)O)[C@@H](C)O)[C@@H](C)CC)[C@@H](C)CC)C(=O)N[C@@H](CCC(=O)O)C(=O)NCC(=O)NCC(=O)N1CCC[C@H]1C(=O)N[C@@H](CO)C(=O)N[C@@H](CO)C(=O)NCC(=O)N[C@@H](C)C(=O)N1CCC[C@H]1C(=O)N1CCC[C@H]1C(=O)N1CCC[C@H]1C(=O)N[C@@H](CO)C(N)=O [Example 85] (H-Y[Aib]EGT[αMePhe(2-F)]TSD[4Pal]SI[αMeL]LD[Orn]K([AEEA-AEEA-γGlu-C14 diacid])AQ[Aib]E[αMeF]IK([AEEA-AEEA-γGlu-C14 diacid])YLIEGGPSSGAPPPS-NH2) | – | – | – | 91.7 | 0.0312 | > 9950 | 95.3 |

From US20230265151A1, “GIP/GLP1 CO-AGONIST COMPOUNDS” (priority 2020, published 2023)
